Results on seven sequences are retold here after US20260250318A1, “COMPOSITIONS AND METHODS FOR CROSSING THE BLOOD BRAIN BARRIER” (VOYAGER THERAPEUTICS, INC., priority 2022, published 2026).

In the first assay the test system is brain. The assay is described as follows: Matured TTM-001 and TTM-002 variants, NGS enrichment in mouse brain. The assay is classed as in vivo, mice. The conditions noted are these: NGS fold-enrichment, brain of mice, relative to AAV9 control.
Consider KTINGSGSPHSKAQAKLT, for which the “Fold Enrichment relative to AAV9, Brain (Mouse)” value is listed as 130.132 fold.
For the sequence KTERPSGSPHSKAQNQQT, the “Fold Enrichment relative to AAV9, Brain (Mouse)” value came out at 73.894 fold.
On the same count and under the same terms, with KTEKNSGSPHSKAQNQQT the figure was 74.393 fold; with KTEKISGSPHSKAQNQQT, 102.978 fold.
Consider KTSNGSGSPHSKAQNPPT, for which the “Fold Enrichment relative to AAV9, Brain (Mouse)” value amounted to 51.541 fold.
Same read-out and setting: the same measure for KTVNRNGSPHSKAQNQQT: 85.361 fold.

Still in this assay, the particulars now being: NGS fold-enrichment, mouse brain, relative to AAV9 control.
Take KTERPSGSPHSKAQNQQT: the “Fold Enrichment relative to AAV9, Brain (Mouse)” value was 73.894 fold.
On to KTEKISGSPHSKAQNQQT, for which the “Fold Enrichment relative to AAV9, Brain (Mouse)” value was 102.978 fold.
As for KTITGHDSPHKSGQNQWT, the “Fold Enrichment relative to AAV9, Brain (Mouse)” value was found to be 7.744 fold.
Consider KTSNGSGSPHSKAQNPPT, for which the “Fold Enrichment relative to AAV9, Brain (Mouse)” value is 51.541 fold.
With KTVNRNGSPHSKAQNQQT, the “Fold Enrichment relative to AAV9, Brain (Mouse)” value worked out at 85.361 fold.

For the next assay, the system named is brains, heart, liver, muscle, and DRG of the NHPs. As to the kind of experiment: Maturation of TTM-001 and TTM-002 capsids, NGS enrichment in NHP tissues. The settings on record: NGS fold-enrichment of RNA, NHP brain, relative to AAV9 control. The assay is classed as in vivo. An outline of the steps: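 Variants carry mutations within and flanking the loop IV peptide insert: positions 450–466 were triplet-randomized, while positions 449–466 received low-frequency point mutations. The combined pool went into two NHPs, and each peptide was scored by NGS enrichment ratio against AAV9.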
In the case of KTERPSGSPHSKAQNQQT, the “Fold Enrichment relative to AAV9, Brain (NHP)” value was 75.669 fold.
As for KTEKISGSPHSKAQNQQT, the “Fold Enrichment relative to AAV9, Brain (NHP)” value amounted to 116.603 fold.
On the same count and under the same terms, with KTITGHDSPHKSGQNQWT the figure was 81.658 fold; with KTSNGSGSPHSKAQNPPT, 91.528 fold; with KTVNRNGSPHSKAQNQQT, 133.016 fold.

Staying with this assay, now noted: NGS fold-enrichment, DRG of NHPs, relative to AAV9 control.
KTINGSGSPHSKAQAKLT: the “Fold Enrichment relative to AAV9, DRG (NHP)” value turned out to be 0.000 fold.
In the case of KTERPSGSPHSKAQNQQT, the “Fold Enrichment relative to AAV9, DRG (NHP)” value stood at 0.000 fold.
Same read-out and setting: the same measure for KTEKNSGSPHSKAQNQQT: 0.000 fold; for KTEKISGSPHSKAQNQQT: 0.000 fold.
Still for that read-out and setting: with KTSNGSGSPHSKAQNPPT the figure was 0.000 fold.
On the same count and under the same terms, with KTVNRNGSPHSKAQNQQT the figure was 0.000 fold.

The assay is the same for the next values; noted with them: NGS fold-enrichment, NHP DRG, relative to AAV9 control.
Take KTERPSGSPHSKAQNQQT: the “Fold Enrichment relative to AAV9, DRG (NHP)” value is recorded as 0.000 fold.
Same read-out and setting: the same measure for KTEKISGSPHSKAQNQQT: 0.000 fold.
With KTITGHDSPHKSGQNQWT, the “Fold Enrichment relative to AAV9, DRG (NHP)” value was 0.000 fold.
On the same count and under the same terms, the same measure for KTSNGSGSPHSKAQNPPT: 0.000 fold; for KTVNRNGSPHSKAQNQQT: 0.000 fold.

Staying with this assay, now noted: NGS fold-enrichment, NHP heart, relative to AAV9 control.
With KTERPSGSPHSKAQNQQT, the “Fold Enrichment relative to AAV9, Heart (NHP)” value came out at 0.029 fold.
Regarding KTEKISGSPHSKAQNQQT, the “Fold Enrichment relative to AAV9, Heart (NHP)” value amounted to 0.000 fold.
For the sequence KTITGHDSPHKSGQNQWT, the “Fold Enrichment relative to AAV9, Heart (NHP)” value came out at 0.090 fold.
Consider KTSNGSGSPHSKAQNPPT, for which the “Fold Enrichment relative to AAV9, Heart (NHP)” value is listed as 0.000 fold.
KTVNRNGSPHSKAQNQQT: the “Fold Enrichment relative to AAV9, Heart (NHP)” value amounted to 0.416 fold.

Staying with this assay, now noted: NGS fold-enrichment, NHP liver DNA, relative to AAV9 control.
For the sequence KTERPSGSPHSKAQNQQT, the “Fold Enrichment relative to AAV9, Liver DNA (NHP)” value was 0.156 fold.
The same measure, in the same setting: the same measure for KTEKISGSPHSKAQNQQT: 0.426 fold; for KTITGHDSPHKSGQNQWT: 0.000 fold; for KTSNGSGSPHSKAQNPPT: 0.039 fold.
On the same count and under the same terms, the same measure for KTVNRNGSPHSKAQNQQT: 0.000 fold.

Staying with this assay, now noted: NGS fold-enrichment, NHP liver RNA, relative to AAV9 control.
In the case of KTERPSGSPHSKAQNQQT, the “Fold Enrichment relative to AAV9, Liver RNA (NHP)” value came to 0.000 fold.
Still for that read-out and setting: the same measure for KTEKISGSPHSKAQNQQT: 0.000 fold; for KTITGHDSPHKSGQNQWT: 0.936 fold; for KTSNGSGSPHSKAQNPPT: 0.000 fold.
Same read-out and setting: the same measure for KTVNRNGSPHSKAQNQQT: 0.000 fold.

Still in this assay, the particulars now being: NGS fold-enrichment, NHP muscle, relative to AAV9 control.
Take KTERPSGSPHSKAQNQQT: the “Fold Enrichment relative to AAV9, Muscle (NHP)” value is recorded as 0.000 fold.
Still for that read-out and setting: the same measure for KTEKISGSPHSKAQNQQT: 0.000 fold.
Still for that read-out and setting: the same measure for KTITGHDSPHKSGQNQWT: 0.000 fold; for KTSNGSGSPHSKAQNPPT: 0.000 fold; for KTVNRNGSPHSKAQNQQT: 0.000 fold.

Staying with this assay, now noted: NGS fold-enrichment, RNA, brain of NHPs, relative to AAV9 control.
As for KTINGSGSPHSKAQAKLT, the “Fold Enrichment relative to AAV9, Brain (NHP)” value came to 71.154 fold.
On the same count and under the same terms, with KTERPSGSPHSKAQNQQT the figure was 75.669 fold; with KTEKNSGSPHSKAQNQQT, 73.347 fold.
Still for that read-out and setting: with KTEKISGSPHSKAQNQQT the figure was 116.603 fold; with KTSNGSGSPHSKAQNPPT, 91.528 fold.
In the case of KTVNRNGSPHSKAQNQQT, the “Fold Enrichment relative to AAV9, Brain (NHP)” value came out at 133.016 fold.

Still in this assay, the particulars now being: NGS fold-enrichment, heart of NHPs, relative to AAV9 control.
For the sequence KTINGSGSPHSKAQAKLT, the “Fold Enrichment relative to AAV9, Heart (NHP)” value was 0.273 fold.
Still for that read-out and setting: the same measure for KTERPSGSPHSKAQNQQT: 0.029 fold; for KTEKNSGSPHSKAQNQQT: 0.000 fold.
In the case of KTEKISGSPHSKAQNQQT, the “Fold Enrichment relative to AAV9, Heart (NHP)” value is given as 0.000 fold.
Take KTSNGSGSPHSKAQNPPT: the “Fold Enrichment relative to AAV9, Heart (NHP)” value is 0.000 fold.
For the sequence KTVNRNGSPHSKAQNQQT, the “Fold Enrichment relative to AAV9, Heart (NHP)” value is 0.416 fold.

The assay is the same for the next values; noted with them: NGS fold-enrichment, liver DNA of NHPs, relative to AAV9 control.
KTINGSGSPHSKAQAKLT: the “Fold Enrichment relative to AAV9, Liver DNA (NHP)” value is listed as 0.777 fold.
Still for that read-out and setting: with KTERPSGSPHSKAQNQQT the figure was 0.156 fold.
Turning to KTEKNSGSPHSKAQNQQT, the “Fold Enrichment relative to AAV9, Liver DNA (NHP)” value turned out to be 0.021 fold.
Consider KTEKISGSPHSKAQNQQT, for which the “Fold Enrichment relative to AAV9, Liver DNA (NHP)” value stood at 0.426 fold.
On to KTSNGSGSPHSKAQNPPT, for which the “Fold Enrichment relative to AAV9, Liver DNA (NHP)” value is given as 0.039 fold.
With KTVNRNGSPHSKAQNQQT, the “Fold Enrichment relative to AAV9, Liver DNA (NHP)” value stood at 0.000 fold.

Still in this assay, the particulars now being: NGS fold-enrichment, liver RNA of NHPs, relative to AAV9 control.
For KTINGSGSPHSKAQAKLT, the “Fold Enrichment relative to AAV9, Liver RNA (NHP)” value was found to be 1.591 fold.
Same read-out and setting: the same measure for KTERPSGSPHSKAQNQQT: 0.000 fold; for KTEKNSGSPHSKAQNQQT: 0.159 fold.
Same read-out and setting: with KTEKISGSPHSKAQNQQT the figure was 0.000 fold.
Same read-out and setting: the same measure for KTSNGSGSPHSKAQNPPT: 0.000 fold; for KTVNRNGSPHSKAQNQQT: 0.000 fold.

Still in this assay, the particulars now being: NGS fold-enrichment, muscle of NHPs, relative to AAV9 control.
With KTINGSGSPHSKAQAKLT, the “Fold Enrichment relative to AAV9, Muscle (NHP)” value was found to be 0.017 fold.
Same read-out and setting: the same measure for KTERPSGSPHSKAQNQQT: 0.000 fold; for KTEKNSGSPHSKAQNQQT: 0.044 fold.
Still for that read-out and setting: the same measure for KTEKISGSPHSKAQNQQT: 0.000 fold; for KTSNGSGSPHSKAQNPPT: 0.000 fold.
The same measure, in the same setting: with KTVNRNGSPHSKAQNQQT the figure was 0.000 fold.
